US20190308987A1, “DUAL MODULATORS OF BOTH MU AND KAPPA OPIOID RECEPTORS” (priority 2016, published 2019)
Several values for one entry are separate records, joined by “and”; a condition that tells them apart may be missing. Equal entries are not always repeated.

Tests used:
[1] = molecular target: T1, delta opioid receptor (DOR) (Homo sapiens, UniProt P41143); assay: Competitive radioligand binding, DOR ([3H]NTI); conditions: read-out: Ki (nM) ± SEM
T1 construct: expressed in transfected cells; host or cells: CHO cells (membranes)
T1 sequence (P41143 whole entry): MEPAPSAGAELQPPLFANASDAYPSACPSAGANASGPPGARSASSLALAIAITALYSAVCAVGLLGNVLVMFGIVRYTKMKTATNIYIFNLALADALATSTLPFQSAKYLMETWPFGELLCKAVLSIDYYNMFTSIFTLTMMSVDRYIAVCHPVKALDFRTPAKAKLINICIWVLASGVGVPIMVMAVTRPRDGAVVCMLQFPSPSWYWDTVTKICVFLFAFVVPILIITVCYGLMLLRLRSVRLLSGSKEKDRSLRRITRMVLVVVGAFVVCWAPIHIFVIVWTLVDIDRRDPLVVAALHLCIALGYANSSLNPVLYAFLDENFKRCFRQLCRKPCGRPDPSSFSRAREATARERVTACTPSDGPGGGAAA
Method: The details of the Radioligand Binding and Functional Studies that were used were described previously.^19 Chinese hamster ovarian (CHO) cell lines were used as monoclonal opioid receptor expressing cells. The μ, δ, and κ opioid receptors were labeled with [^3H]naloxone, ^3H-naltrindole ([^3H]NTI) and ^3H-nor-Binaltorphimine ([^3H]norBNI). The opioid receptor expressing cell membranes were incubated with the radioligands at different concentrations of the drug under investigation at 30° C. for 1 h. With the absence and presence of 10 μM naltrexone, specific binding was got as the difference in binding obtained. The specific binding of the drugs to the radioligand was calculated from data using linear regression analysis of Hill plots.
(§1) All samples were assayed in triplicate and repeated at least twice for a total of 3 independent determinations. Results were reported as mean values±SEM. Concentration-effect curves were fit by nonlinear regression to a one-site binding model, using GraphPad Prism software, to determine EC50 and Emax values. IC50 values were obtained from Hill plots and analyzed by linear regression using Microsoft Excel software. Binding Ki values were determined from IC50 values using the Cheng-Prusoff equation: Ki=IC50/l+([L]/KD), where [L] is the concentration of […] and KD is the KD of the radioligand.

morphine antinociception = assay: Warm water tail immersion (tail flick) test; format: in vivo, Swiss Webster mice
Method: Male Swiss Webster mice (Harlan Laboratories, Indianapolis, Ind.) weighing 25-30 g were housed 5 to a cage in animal care quarters and maintained at […] on a 12 h light-dark cycle. Food and water were available ad libitum. The mice were brought to a test room (22±2° C., 12 h light-dark cycle), marked for identification and allowed 18 h to recover from transport and handling. Protocols and procedures were approved by the Institutional Animal Care and Use Committee (IACUC) at Virginia Commonwealth University Medical Center and comply with the recommendations of the IASP (International Association for the Study of Pain).
The warm water tail-immersion test was performed according to previously described methods using a water bath with the temperature maintained at 56±0.1° C.^20 Briefly, before giving the mice injections, a baseline (control) latency was determined. Only mice with a control reaction time of 2 to 4 s were used. The average baseline latency for these experiments was 3.0±0.1 s. The test latency after drug treatment was assessed at the appropriate time, and a 10 s maximal cutoff time was imposed to prevent tissue damage. Antinociception was quantified according to established procedures as the percentage of maximum possible effect (% MPE), which was calculated as follows: % MPE=[(test latency−control latency)/(10−control latency)]×100.^21 Percentage MPE was calculated for each mouse, using at least six mice per group.
Intracerebroventricular (ICV) injections were performed as described previously.^22 Mice were anesthetized with 2.5% isoflurane and a horizontal incision was made in the scalp. A needle was inserted to a depth of 3 mm into the lateral ventrical (2 mm rostral and 2 mm lateral at a 45° angle from the bregma). At intervals, 5 μL injections of drug or vehicle were made using this guide insertion to the same depth using a needle with a guard in nonanesthetized animals.^22, 23 Animals underwent the anesthetized surgery in the morning of the experiment and were then injected with drug at intervals indicated in the text without additional anesthesia. Immediately after testing, the animals were euthanized to minimize any type of distress, according to IACUC guidelines.

[2] = system: mouse distal colon circular muscle; assay: Colon circular muscle isometric tension recordings, distal colon
Method: Mice were euthanized by cervical dislocation. The colon was dissected, flushed of its contents, and trimmed of mesentery. […] The tissues, 0.5 cm in length, were suspended vertically along the axis of the circular muscle with a metal triangle tied to a hook under 1 g of passive tension in 15 mL siliconized organ baths.
Data are presented as the mean±S.E.M, values of P≤0.05 were considered significant.

[3] = system: guinea pig ileum Longitudinal Muscle Myenteric Plexus (LMMP); assay: Electrical field stimulated contractions in LMMP strips
Method: Male albino guinea pigs (350-450 g) were euthanized by asphyxiation with CO2. A segment of ileum was removed and placed in a dissection bath filled with pre-oxygenated Krebs' solution (118 mM NaCl, 4.6 mM KCl, 1.3 mM NaH2PO4, 1.2 mM MgSO4, 25 mM NaHCO3, 11 mM glucose, and 2.5 mM CaCl2). Longitudinal Muscle Myenteric Plexus (LMMP) strips were prepared as previously described.^26 Electrical field stimulation (EFS) (50 V, 7.5 Hz, unless stated otherwise) was applied through concentric electrodes over longitudinal muscle or L-type stimulating electrodes over circular muscle strips to produce neurogenic contractions/relaxations. Drugs were added in single or cumulative doses depending on the assay to determine their inhibitory effects on the neurogenic responses.

MOR = MOR (Mus musculus, UniProt P42866); assay: [35S]GTPγS-binding assay, low MOR-expressing CHO cell line membranes; format: biochemical; design: expressed in transfected cells; host or cells: CHO cells (membranes)
Chain of MOR (P42866 whole entry): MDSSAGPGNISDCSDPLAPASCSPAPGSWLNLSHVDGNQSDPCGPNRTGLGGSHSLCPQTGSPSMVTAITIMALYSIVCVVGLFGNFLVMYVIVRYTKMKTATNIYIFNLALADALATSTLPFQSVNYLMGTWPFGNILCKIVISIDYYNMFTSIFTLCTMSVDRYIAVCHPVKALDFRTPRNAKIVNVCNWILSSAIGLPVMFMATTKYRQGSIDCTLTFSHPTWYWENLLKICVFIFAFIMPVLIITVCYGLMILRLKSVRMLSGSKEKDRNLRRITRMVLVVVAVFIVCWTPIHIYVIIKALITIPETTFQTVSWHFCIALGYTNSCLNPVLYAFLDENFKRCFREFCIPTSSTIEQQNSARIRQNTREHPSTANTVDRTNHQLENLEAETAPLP
Method: [^35S]GTPγS-binding Assays using a Low MOR-expressing CHO Cell Line: Cell membranes were incubated with varying concentrations of BNAP or 3 μM DAMGO (standard full agonist at MOR) in the presence of 10 μM GDP and 0.1 nM [^35S]GTPγS in assay buffer (50 mM Tris-HCl, pH 7.4, 3 mM MgCl2, 0.2 mM EGTA and 100 mM NaCl) for 90 min at 30° C. Nonspecific binding was determined using 10 μM unlabeled GTPγS. The incubation was terminated by rapid vacuum filtration through GF/B glass fiber filters. Bound radioactivity was determined by liquid scintillation spectrophotometry. Additional methodological details of the assay were described previously.^9
as §1

SMILES: O=C(N[C@@H]1CC[C@@]2(O)[C@H]3Cc4ccc(O)c5c4[C@@]2(CCN3CC2CC2)C1O5)c1cc[n+](Cc2ccccc2)cc1 (stereo partly shown) [BNAP]
- Ki [1]: 722 ± 65 nM
- antinociception of compound alone (morphine antinociception; 1.0 μg/5 μL ICV, compared to morphine alone): did not produce significant antinociception
- antagonism of morphine antinociception (morphine antinociception; 10 mg/kg s.c., any morphine dose tested): did not significantly antagonize morphine antinociception
- antinociceptive effect of compound alone (morphine antinociception; 10 mg/kg s.c., warm water tail flick, mice): did not produce significant antinociceptive effects
- dose giving complete reversal of morphine antinociception (morphine antinociception; ICV, dose dependent reversal): 0.3 μg/5 μL
- inhibition of morphine-induced contractions ([2]; 1 nM antagonist, distal colon): neither NAP nor BNAP showed significant inhibition of morphine-induced contractions
- antagonism of morphine effects ([2]; 10 nM antagonist, distal colon): neither NAP nor BNAP showed significant antagonism of morphine effects
- morphine pD2 in presence of antagonist ([2]; 100 nM antagonist, distal colon (naive 6.0)): 5.2
- contractions induced by compound alone ([2]; up to 30 μM, distal colon preparation): Neither BNAP nor NAP alone at concentrations up to 30 μM induced contractions
- IC50 ([3]; Cavia porcellus, guinea pig ileum LMMP, read-out: pIC50 for inhibition of EFS contractions (converted)): 13.8 nM
- effect of nor-BNI on agonist concentration-response curve ([3]; nor-BNI pretreatment 15 min, dose dependent): dose dependently shifted the BNAP concentration-response curve to the right
- EC50 (MOR; EC50 (nM), 35S-GTP[γS]): 4.84 nM and 4.8 nM
- % max of agonist (MOR; Emax relative to full agonist DAMGO): 14.6±0.9%
